Tests used:
[1] = test system: THP-1 dual reporter cells; experiment: Cytokine secretion in wild-type and STING knockout THP-1 dual reporter cells; type: cell-based, human; conditions: wild-type THP-1 dual reporter cells
[2] = test system: THP-1 dual reporter cells; experiment: THP-1 dual reporter assay (ISRE and NF-κB promoter activity); type: cell-based, human; conditions: 5 μg/mL ADU-S100, 2 μM Compound 1 or 2, overnight
Method: THP1-Dual™ Cells lines were purchased from InvivoGen (WT (thpd-nfis) and STING-KO (thpd-kostg)) and cultured as recommended by manufacturer: in RPMI media (Gibco 22400-071) supplemented with 10% heat-inactivated Fetal Bovine Serum (FBS) (Gibco A38400-02) and 1× Pen-Strep-Glutamine (Gibco 10378-016). Cells were treated with selective antibiotic every other passage using 100 μg/ml Normocin™ (InvivoGen ant-nr-1), 10 μg/ml of blasticidin (InvivoGen ant-bl-05) and 100 μg/ml of Zeocin™ (InvivoGen ant-zn-05). THP1-Dual™ Cells (wild-type or STING-KO) were seeded at 1.5×10^5 cells/well in 96-well plates. Cells were treated with DMSO, 5 μg/mL ADU-S100, 2 μM Compound 1 or 2 or the combinations overnight. The next day, 10 μL of the media from the treated cells were mixed with 50 μL of QUANTI-Luc™ Gold (Invivogen rep-qlcg2) in a white 96-well plate (Thermo Scientific 9502887) to measure the interferon-sensitive response element (ISRE) promoter activity through Luciferase signal using a plate reader. For measuring NF-κB promoter activity, 10 μL of the media from the treated cells were mixed with 90 μL of QUANTI-Blue™ (Invivogen rep-qbs3) in white-96-well plates (Corning-Costar 3610), then incubated at 37° C. for one hour. The signal was then measured using a plate reader with detection at 640 nm wavelength.

Nc1ncnc2c1ncn2[C@@H]1O[C@@H]2COP(=O)([S-])O[C@@H]3[C@H](O)[C@@H](COP([O-])(=S)O[C@H]2[C@H]1O)O[C@H]3n1cnc2c(N)ncnc21.[Na+].[Na+] (some centres unmarked) [ADU-S100, reference compound]
stimulates: secretion of CCL5 [1] | secretion of CXCL10 [1] | secretion of IFNβ [1] | ISRE activity (QUANTI-Luc) [2] | NFκB activity (QUANTI-Blue) [2]

— patent US20250127790A1, “COMBINATION THERAPY USING VPS34 INHIBITORS” (Deciphera Pharmaceuticals, LLC, priority 2021, published 2025)
